Test results published in patent publication US20080003282A1, “Antiparasitical agents and methods for treating, preventing and controlling external parasites in animals” (priority 2005, published 2008).
Where two headings read alike, the source gives them in different places.

How the values were obtained:
[1] = type: physicochemical
Procedure: In Vitro Degradation Studies
A solution containing thioamide derivative of fipronil (“TD-fipronil”) in a solution of CH3CN/H2O (50:50 v/v) and the solution was subjected to the following degradation agents: an acid (0.5 N HCl); a base (0.5 N NaOH); fluorescent light; heat (65° C.); an oxidizer (5% H2O2); and UV light. The identity of fipronil formed was confirmed via HPLC with UV detection and HPLC with diode array detection.

[2] = parameters: species or system dogs; conditions: dog, po, 10 mg/kg
Procedure: In Vivo Degradation Study—Oral Administration
An oral formulation (solution) comprising 100 mg/ml of thioamide derivatives of fipronil dissolved in 60:40 propylene glycol: glycerol formal was orally administered to dogs at a dosage rate of 10 mg/kg and the concentration of fipronil in blood plasma measured at 6 hours, day 1, day 2, and day 7 and is presented below

For `NC(=S)c1nn(-c2c(Cl)cc(C(F)(F)F)cc2Cl)c(N)c1[S+]([O-])C(F)(F)F` (stereo not shown) [TD-fipronil], the degradation product formed [1] was “fipronil sulfone”, the “stability in acid” value [1] was “stable in acid” and the fipronil formed ([1]; Acid (0.5 N HCl), 4 days) was “being degraded in 4 days; negligible amounts”. The fipronil formed ([1]; Base (0.5 N NaOH)) was “no fipronil was formed”, the fipronil formed ([1]; Oxidation (5% H2O2)) was “no fipronil was formed” and the “sensitivity to light” value ([1]; UV light) was “very sensitive to light”. The “in vivo degradation into fipronil judged against efficacy” value [2] was “degrades into fipronil in vivo in amounts that are sufficient for efficacy against fleas and ticks”.
